Test results: patent EP4741387A1, “CRYSTAL FORM OF BIPYRIMIDINE COMPOUND, PREPARATION METHOD THEREFOR AND USE THEREOF” (Jiangsu Yahong Meditech Co., Ltd., priority 2023, dated 2025)
≈ marks a conversion by molar mass, not a printed value. Marks after values point to notes of the source that are not given here.

How the values were obtained:
[1] = Stability subjected to temperature and humidity (XRPD of crystal form); format: physicochemical; conditions: solid powder, 30 days
Experimental: The instrument is Shimadzu XRD-6000, and the samples are scanned according to the following parameters: The ray source is Cu~Kα target (1.54056 Å).
In addition, an appropriate amount of crystal form I solid powder was weighed, and placed under stability conditions (40°C / 75% RH, 60°C / 75% RH) for 30 days. Samples were collected for XRPD.

[2] = Trituration study of crystal form I (XRPD); format: physicochemical; conditions: manual trituration 1 min or 3 min, without solvent, with water or ethanol
Experimental: Approximately 50 mg of crystal form I was manually triturated in a mortar using the condition shown in Table 5, and XRPD was carried out to investigate the crystal form of the triturated solid.

[3] = Pharmacokinetic study of intragastric administration of suspension; format: in vivo; conditions: male SD rats, result in words
Experimental: Crystal form I was used in pharmacokinetic studies in rats. Twelve male SD rats were weighed before administration, and housed using standard feeding methods. Animals were housed in standard cages with free access to food and water during the study. Rats were intragastrically administered the suspension of crystal form I. 40 µL of blood was collected at each sampling point, and placed in an EDTA-containing anticoagulant tube. After centrifugation, 20 µL of plasma was collected. All samples were immediately frozen in a -80°C refrigerator after collection.

[4] = Stability to forced degradation (oxidative and alkali); format: physicochemical; conditions: 1 mg/mL in 90% acetonitrile
Experimental: (§1) The HPLC for solubility and stability is carried out using a Phenomenex Luna C18 (2), 3 µm, 2X50 mm chromatographic column.
3 mg of crystal form I was weighed to formulate a stock solution of 1 mg/mL with 3 mL of 90% acetonitrile. Stability subjected to oxidative degradation (degraded with 3% H2O2 at 40°C for 1.5 hours) and alkali degradation (degraded with 0.1 N NaOH at 40°C for 2 hours) was studied.

[5] = Stability subjected to light (LC analysis); format: physicochemical
Experimental: as §1
An appropriate amount of crystal form I solid powder was weighed, and placed in a light-stabilized chamber to irradiate under ICH light intensity conditions (at least greater than 1.2*10^6 Lux*h, illuminance of 4500±500 Lux, and intensity of 200 w*hr/m^2). Samples were collected for LC study and analysis.

[6] = Dynamic vapor sorption (DVS); format: physicochemical
[7] = Solubility study of crystal form I; format: physicochemical; conditions: for solubility: thermodynamic from solid
Experimental: as §1
50 µL or 100 µL of the solvent shown in Table 6 was gradually added to 2 mg of crystal form I, and the resulting mixture was manually shaken, vortexed, or sonicated to dissolve. Addition of solvent was stopped if the concentration was below 1 mg/mL. The solubility was calculated based on the sample amount and the total amount of solvent added.

[8] = Stability subjected to temperature and humidity (LC analysis); format: physicochemical; conditions: solid powder, 30 days
Experimental: as §1
1 to 3 mg of crystal form I solid powder was weighed, and placed at 60°C or 60°C / 75% RH for 30 days. Samples were collected for LC study and analysis.

[9] = Solubility study of crystal form I; format: physicochemical; conditions: pH 7.4 phosphate buffer (37°C for 24 hours)

- crystal form change (XRPD) ([1]; 40°C / 75% RH): did not change its crystal form
- crystal form change (XRPD) ([1]; 60°C / 75% RH): did not change its crystal form
- crystal form after trituration (XRPD) [2]: all crystal form I
- bioavailability [3]: high
- exposure [3]: high
- plasma concentration [3]: high
- degradation ([4]; alkali degradation: 0.1 NaOH at 40°C for 2 hour): only slight degradation
- degradation ([4]; oxidative degradation: 3% H2O2 at 40°C for 1.5 hours): only slight degradation
- photostability ([5]; ICH light conditions, result in words): photostable
- change of content of the main component ([5]; solid powder, ICH light intensity conditions (>1.2*10^6 Lux*h, 200 w*hr/m^2)): less than 0.2%
- hygroscopicity ([6]; DVS, result in words): non-hygroscopic
- crystal form after DVS (XRPD) ([6]; XRPD before and after DVS): did not change
- water absorption rate ([6]; from 0% RH to 95% RH, 25°C): 0.02%
- solubility ([7]; acetone, organic solvent or mixture): > 34.4 mg/mL
- solubility ([7]; acetonitrile, organic solvent or mixture): 14.2 to 28.4 mg/mL (≈ 26.1 to 52.2 mM)
- solubility ([7]; acetonitrile-water 9:1, organic solvent or mixture): > 32.4 mg/mL
- solubility ([7]; ethyl acetate, organic solvent or mixture): 14.9 to 29.8 mg/mL (≈ 27.4 to 54.8 mM)
- solubility ([7]; methanol, organic solvent or mixture): > 19.2 mg/mL
- solubility ([7]; methanol-water 1:1, aqueous with cosolvent or surfactant or cyclodextrin): < 0.895 mg/mL
- solubility ([7]; methanol-water 9:1, organic solvent or mixture): > 33.4 mg/mL
- solubility in organic solvent ([7]; organic solvent, result in words): good solubility
- solubility ([7]; pH 1.2 hydrochloric acid solution, pH 1.2, simulated gastric fluid): 8.45 to 16.9 mg/mL (≈ 15.5 to 31.1 mM)
- change of content of the main component ([8]; 60°C / 75% RH): less than 0.2%
- change of content of the main component ([8]; 60°C): less than 0.2%
- solubility at 24 h ([9]; aqueous buffer, thermodynamic from solid): 0.31 mg/mL (≈ 0.57 mM)
- solubility [9]: 0.31 * mg/mL
Compound: COc1cnc(-c2c(OC)ncnc2C2CC2)nc1NCC12CCC(c3nc(C(F)(F)F)cn3C)(CC1)CC2 [crystal form I, 4'-cyclopropyl-5,6'-dimethoxy-N-((4-(1-methyl-4-(trifluoromethyl)-1H-imidazol-2-yl)bicyclo[2.2.2]octan-1-yl)methyl)-[2,5'-bipyrimidin]-4-amine]
